Source: ChEMBL document CHEMBL1148394, “Design, synthesis, and in vitro biological evaluation of small molecule inhibitors of estrogen receptor alpha coactivator binding” (J Med Chem, 2004)

The compounds below were run against Estrogen receptor (Homo sapiens, UniProt Q92731+P03372) (assay: Binding affinity towards estrogen receptor was determined).
Type: protein assay

For `CC(C)CNC(=O)[C@]1(C)C[C@](C)(C(=O)NCC(C)C)C[C@](C)(C(=O)NCC(C)C)C1`, which Ki is on record?
The Ki was > 1000 µM.

Which Ki does the source give for `CC(C)CC[C@H]1S[C@@H](CCC(C)C)S[C@@H](CCC(C)C)S1` here?
The Ki was > 1000 µM.

For `CCC(C)CNCCc1ccc2ccc(CCNCC(C)CC)cc2c1` (stereo not drawn), which Ki is on record?
Its Ki is > 1000 µM.

How did the Ki turn out when `CC(C)CCc1nc(NCC(C)C)nc(N(CC(=O)O)C(C)C)n1` was run?
Its Ki is 410 µM.

For `CCCNc1nc(NCCC)nc(NCCC)n1`, which Ki is on record?
The Ki was 290 µM.

Which Ki does the source give for `CCCCCCCNc1nc(NCCCCCCC)nc(NCCCCCCC)n1` here?
The Ki was 290 µM.

For `c1ccc2cc(CNc3nc(NCc4ccc5ccccc5c4)nc(NCc4ccc5ccccc5c4)n3)ccc2c1`, which Ki is on record?
Its Ki is 290 µM.

For `c1ccc(CNc2nc(NCc3ccccc3)nc(NCc3ccccc3)n2)cc1`, which Ki is on record?
Its Ki is 240 µM.

`c1ccc(CCc2cc(NCc3ccccc3)nc(NCc3ccccc3)n2)cc1` was tested. Which Ki did it give?
Its Ki is 49 µM.

How did the Ki turn out when `CC(C)CCc1nc(NCC(C)C)nc(NCC(C)C)n1` was run?
Its Ki is 650 µM.

How did the Ki turn out when `CC(C)CCNCCc1ccc2ccc(CCNCCC(C)C)cc2c1` was run?
The Ki was > 1000 µM.

Which Ki does the source give for `CC(C)CNc1nc(NCC(C)C)nc(NCC(C)C)n1` here?
The Ki was 590 µM.

Which Ki does the source give for `CC(C)CCc1nc(NCC(C)C)nc(N(CC(=O)O)CC(C)C)n1` here?
The Ki was 790 µM.
